# Reference: patent US8435990B2, “Dihydropyrimidone amides as P2X7 modulators” (Roche Palo Alto LLC, priority 2009, dated 2013)
# pIC50: −log10 of the molar value.
# Target: T1, human P2X7 (Homo sapiens, UniProt Q99572)
# T1 construct: 1321N1 cells stably expressing the full length human P2X7 gene (1321N1-hP2X7)
# T1 sequence (Q99572 1-595): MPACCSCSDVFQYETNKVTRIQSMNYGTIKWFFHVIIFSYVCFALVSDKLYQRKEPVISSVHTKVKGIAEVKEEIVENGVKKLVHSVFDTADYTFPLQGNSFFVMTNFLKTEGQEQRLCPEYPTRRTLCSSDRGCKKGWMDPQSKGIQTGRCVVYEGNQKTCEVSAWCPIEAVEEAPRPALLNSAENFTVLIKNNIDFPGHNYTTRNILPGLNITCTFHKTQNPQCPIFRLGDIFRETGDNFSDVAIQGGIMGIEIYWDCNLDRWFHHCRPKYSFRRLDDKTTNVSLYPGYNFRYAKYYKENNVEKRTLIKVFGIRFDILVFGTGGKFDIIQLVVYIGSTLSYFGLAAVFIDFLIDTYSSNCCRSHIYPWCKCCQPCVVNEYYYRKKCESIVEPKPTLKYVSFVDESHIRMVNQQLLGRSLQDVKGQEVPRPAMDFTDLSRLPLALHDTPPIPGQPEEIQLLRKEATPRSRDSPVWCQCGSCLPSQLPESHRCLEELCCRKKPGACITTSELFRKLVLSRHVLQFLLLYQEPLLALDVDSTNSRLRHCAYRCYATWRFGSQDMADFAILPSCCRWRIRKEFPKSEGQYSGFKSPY
# Assay: P2X7 modulator pIC50 of Table 1 (assay not given; Intracellular Calcium Flux (FLIPR) Assay assumed)
# Assay type: cell-based
# Protocol: Intracellular Calcium Flux (FLIPR) Assay
# Stock solutions of compounds were prepared from powders as a 10 mM DMSO stock solution. These solutions were stored at RT during the two week period of these experiments to prevent freeze-thaw of the DMSO stocks. The DMSO stocks were added to the appropriate assay buffer at a concentration of 10 μM, and then diluted serially to the final concentrations that were tested. No observable precipitate was formed at any time during this process. The aqueous solutions of compounds as well as ATP (Sigma A7699) and BzATP (Sigma B6396) were prepared fresh for each day of experiment.
# 1321N1 cells stably expressing the full length human P2X7 gene (1321N1-hP2X7) and HEK293 cells stably expressing the full length rat P2X7 gene (HEK293-rP2X7) were obtained from the Roche Cell Culture Facility. 1321N1-hP2X7 cells were grown in Dulbecco's Modified Eagle's Medium (DMEM) high glucose supplemented with 10% FBS and 250 μg/mL G418. HEK293-rP2X7 cells were grown in DMEM/F-12 supplemented with 10% FBS, 1 mM CaCl2, 2 mM MgCl2, 2 mM L-Glutamine and 500 μg/ml G418. Cells were split such that they never became >70% confluent.
# On the day prior to the experiment, 1321N1-hP2X7 or HEK293-rP2X7 cells were released into suspension with calcium-free PBS+Versene and washed by centrifugation with calcium-free PBS to remove the Versene. Cells were resuspended in growth medium at a density of 2.5×10^5 cells/mL and seeded into black walled, clear bottom 96 well plates (50,000 cells/well) approximately 18 hr prior to intracellular calcium flux experiments.
# On the day of the experiment, plates were washed with FLIPR buffer (calcium- and magnesium-free Hank's Balanced Salt Solution (HBSS) supplemented with 10 mM Hepes, 2.5 mM probenecid and 2 mM calcium chloride) using a BIO-TEK 96 channel plate washer and incubated with […] fluo-3 dye at 37° C. for one hr. The dye was then removed by plate washing and the cells were allowed to equilibrate for 20 min at room temperature with antagonist or vehicle (FLIPR buffer). Agonist (100 μM BzATP final concentration for hP2X7; 5μM BzATP final concentration or rP2X7) was added online with the FLIPR and fluorescence measurements made at 1 sec intervals for 60 sec followed by 3 sec intervals for a further 4 min (5 min total). A final addition of 5 μM ionomycin was made and the maximal BzATP-evoked fluorescence normalized to the maximal ionomycin-evoked fluorescence.
row,pIC50,SMILES
1,7.04,"COC[C@H](O)Cn1c(=O)cnn(-c2ccc(C)c(NC(=O)C3=CN(C)C(=O)N[C@H]3c3ccc(F)cc3)c2)c1=O [Compound 25, (S)-4-(4-Fluoro-phenyl)-1-methyl-2-oxo-1,2,3,4-tetrahydro-pyrimidine-5-carboxylic acid {5-[4-((R)-2-hydroxy-3-methoxy-propyl)-3,5-dioxo-4,5-dihydro-3H-[1,2,4]triazin-2-yl]-2-methyl-phenyl}-amide]"
2,7.70,Cc1ccc(-n2ncccc2=O)cc1NC(=O)C1=CN(C)C(=O)N[C@H]1c1ccc(F)cc1 [Compound 26]
3,7.39,"Cc1ccc(=O)n(-c2ccc(C)c(NC(=O)C3=CN(C)C(=O)N[C@H]3c3ccc(F)cc3)c2)n1 [Compound 27, (S)-4-(4-Fluoro-phenyl)-1-methyl-2-oxo-1,2,3,4-tetrahydro-pyrimidine-5-carboxylic acid [2-methyl-5-(3-methyl-6-oxo-6H-pyridazin-1-yl)-phenyl]-amide]"
4,6.82,"Cc1ccc(-c2cncc(=O)[nH]2)cc1NC(=O)C1=CN(C)C(=O)N[C@H]1c1ccc(F)cc1 [Compound 28, (S)-4-(4-Fluoro-phenyl)-1-methyl-2-oxo-1,2,3,4-tetrahydro-pyrimidine-5-carboxylic acid [2-methyl-5-(6-oxo-1,6-dihydro-pyrazin-2-yl)-phenyl]-amide]"
5,7.26,"Cc1cc(Cl)c(OCCO)cc1NC(=O)C1=CN(C)C(=O)N[C@@H]1C1CCCCC1 [Compound 29, (R)-4-Cyclohexyl-1-methyl-2-oxo-1,2,3,4-tetrahydro-pyrimidine-5-carboxylic acid [4-chloro-5-(2-hydroxy-ethoxy)-2-methyl-phenyl]-amide]"
6,7.70,"Cc1cc(Cl)c(OCCO)cc1NC(=O)C1=CN(C)C(=O)N[C@H]1c1cccc(F)c1 [Compound 30, (S)-4-(3-Fluoro-phenyl)-1-methyl-2-oxo-1,2,3,4-tetrahydro-pyrimidine-5-carboxylic acid [4-chloro-5-(2-hydroxy-ethoxy)-2-methyl-phenyl]-amide]"
7,6.79,"Cc1ccc2[nH]c(=O)ccc2c1NC(=O)C1=CN(C)C(=O)N[C@H]1c1ccc(F)cc1 [Compound 31, (S)-4-(4-Fluoro-phenyl)-1-methyl-2-oxo-1,2,3,4-tetrahydro-pyrimidine-5-carboxylic acid (6-methyl-2-oxo-1,2-dihydro-quinolin-5-yl)-amide]"
8,7.67,"Cc1ccc(-c2ccn[nH]c2=O)cc1NC(=O)C1=CN(C)C(=O)N[C@H]1c1ccc(F)cc1 [Compound 32, (S)-4-(4-Fluoro-phenyl)-1-methyl-2-oxo-1,2,3,4-tetrahydro-pyrimidine-5-carboxylic acid [2-methyl-5-(3-oxo-2,3-dihydro-pyridazin-4-yl)-phenyl]-amide]"
9,6.97,"Cc1cc(-c2ccc(C)c(NC(=O)C3=CN(C)C(=O)N[C@H]3c3cccc(F)c3)c2)n[nH]1 [Compound 33, (S)-4-(3-Fluoro-phenyl)-1-methyl-2-oxo-1,2,3,4-tetrahydro-pyrimidine-5-carboxylic acid [2-methyl-5-(5-methyl-1H-pyrazol-3-yl)-phenyl]-amide]"
10,7.27,"CCc1c(NC(=O)C2=CN(C)C(=O)N[C@H]2c2ccc(F)cc2)ccc2nc(C)ccc12 [Compound 34, (S)-4-(4-Fluoro-phenyl)-1-methyl-2-oxo-1,2,3,4-tetrahydro-pyrimidine-5-carboxylic acid (5-ethyl-2-methyl-quinolin-6-yl)-amide]"
11,6.98,"Cc1ccc(-n2ncc(=O)n(C)c2=O)cc1NC(=O)C1=CN(C)C(=O)N[C@H]1c1ccc(F)cc1 [Compound 35, (S)-4-(4-Fluoro-phenyl)-1-methyl-2-oxo-1,2,3,4-tetrahydro-pyrimidine-5-carboxylic acid [2-methyl-5-(4-methyl-3,5-dioxo-4,5-dihydro-3H-[1,2,4]triazin-2-yl)-phenyl]-amide]"
12,6.86,"COC[C@@H](O)Cn1nc(-c2ccc(C)c(NC(=O)C3=CN(C)C(=O)N[C@H]3c3ccc(F)cc3)c2)cc1C [Compound 36, (S)-4-(4-Fluoro-phenyl)-1-methyl-2-oxo-1,2,3,4-tetrahydro-pyrimidine-5-carboxylic acid {5-[1-((S)-2-hydroxy-3-methoxy-propyl)-5-methyl-1H-pyrazol-3-yl]-2-methyl-phenyl}-amide]"
13,7.44,"Cc1ccc(-n2ncc(=O)n(C)c2=O)cc1NC(=O)C1=CN(C)C(=O)N[C@H]1c1cccc(F)c1 [Compound 37, (S)-4-(3-Fluoro-phenyl)-1-methyl-2-oxo-1,2,3,4-tetrahydro-pyrimidine-5-carboxylic acid [2-methyl-5-(4-methyl-3,5-dioxo-4,5-dihydro-3H-[1,2,4]triazin-2-yl)-phenyl]-amide]"
14,7.84,"CCn1nccc(-c2ccc(C)c(NC(=O)C3=CN(C)C(=O)N[C@H]3c3ccc(F)cc3)c2)c1=O [Compound 38, (S)-4-(4-Fluoro-phenyl)-1-methyl-2-oxo-1,2,3,4-tetrahydro-pyrimidine-5-carboxylic acid [5-(2-ethyl-3-oxo-2,3-dihydro-pyridazin-4-yl)-2-methyl-phenyl]-amide]"
15,7.37,"COCCN1C=C(C(=O)Nc2cc(OCCO)c(Cl)cc2C)[C@H](c2ccc(F)cc2)NC1=O [Compound 39, (S)-4-(4-Fluoro-phenyl)-1-(2-methoxy-ethyl)-2-oxo-1,2,3,4-tetrahydro-pyrimidine-5-carboxylic acid [4-chloro-5-(2-hydroxy-ethoxy)-2-methyl-phenyl]-amide]"
16,7.14,"Cc1ccc(-c2ccc(=O)n(C)n2)cc1NC(=O)C1=CN(C)C(=O)N[C@H]1c1ccc(F)cc1 [Compound 40, (S)-4-(4-Fluoro-phenyl)-1-methyl-2-oxo-1,2,3,4-tetrahydro-pyrimidine-5-carboxylic acid [2-methyl-5-(1-methyl-6-oxo-1,6-dihydro-pyridazin-3-yl)-phenyl]-amide]"
17,7.54,"Cc1ccc(-c2ccc(=O)[nH]n2)cc1NC(=O)C1=CN(C)C(=O)N[C@H]1c1ccc(F)cc1 [Compound 41, (S)-4-(4-Fluoro-phenyl)-1-methyl-2-oxo-1,2,3,4-tetrahydro-pyrimidine-5-carboxylic acid [2-methyl-5-(6-oxo-1,6-dihydro-pyridazin-3-yl)-phenyl]-amide]"
18,7.84,Cc1cc2cnn(CCO)c2cc1NC(=O)C1=CN(C)C(=O)N[C@H]1c1ccc(F)cc1 [Compound 42]
19,7.53,"COC[C@H](O)Cn1nccc(-c2ccc(C)c(NC(=O)C3=CN(C)C(=O)N[C@H]3c3ccc(F)cc3)c2)c1=O [Compound 43, (S)-4-(4-Fluoro-phenyl)-1-methyl-2-oxo-1,2,3,4-tetrahydro-pyrimidine-5-carboxylic acid {5-[2-((R)-2-hydroxy-3-methoxy-propyl)-3-oxo-2,3-dihydro-pyridazin-4-yl]-2-methyl-phenyl}-amide]"
20,7.26,"Cc1ccc(-c2ccnn(C)c2=O)cc1NC(=O)C1=CN(C)C(=O)N[C@H]1c1cccc(F)c1 [Compound 44, (S)-4-(3-Fluoro-phenyl)-1-methyl-2-oxo-1,2,3,4-tetrahydro-pyrimidine-5-carboxylic acid [2-methyl-5-(2-methyl-3-oxo-2,3-dihydro-pyridazin-4-yl)-phenyl]-amide]"
21,6.86,"CN1C=C(C(=O)Nc2cc(N3CCCC3=O)ccc2Br)[C@H](c2ccc(F)cc2)NC1=O [Compound 45, (S)-4-(4-Fluoro-phenyl)-1-methyl-2-oxo-1,2,3,4-tetrahydro-pyrimidine-5-carboxylic acid [2-bromo-5-(2-oxo-pyrrolidin-1-yl)-phenyl]-amide]"
22,7.92,Cc1cc2cnn(C)c2cc1NC(=O)C1=CN(C)C(=O)N[C@H]1c1ccc(F)cc1 [Compound 46]
